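Test compounds were applied to cells in 96-well plates for 48 hours at 5 doses. The concentration for 50% growth inhibition is given as GI50.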 Calls of active or inactive are those of the source. Rule as the data show it: active = GI50 up to about 1.1 µM and inactive = higher.
Assays:
Experiment in all cases: NCI tumour cell line growth inhibition, 48 h
OVCAR-3 = tested on: OVCAR-3
K562 = tested on: K562
M14 = tested on: M14
HOP-62 = tested on: HOP-62
EKVX = tested on: EKVX
HOP-92 = tested on: HOP-92
NCI-H23 = tested on: NCI-H23
HCC 2998 = tested on: HCC 2998
UO-31 = tested on: UO-31
SF-539 = tested on: SF-539
SNB-19 = tested on: SNB-19
SF-268 = tested on: SF-268
U-251 = tested on: U-251
786-0 = tested on: 786-0
HT-29 = tested on: HT-29
NCI-H522 = tested on: NCI-H522

Measured: GI50

CC[P+]1(c2ccccc2)CCCCC1
inactive: OVCAR-3 > 100 µM | K562 > 100 µM | M14 > 100 µM | HOP-62 > 100 µM | EKVX > 100 µM | HOP-92 > 100 µM | NCI-H23 > 100 µM | HCC 2998 > 100 µM | UO-31 > 100 µM | SF-539 > 100 µM | SNB-19 > 100 µM | SF-268 > 100 µM | U-251 > 100 µM | 786-0 > 100 µM | HT-29 > 100 µM

CCCCCCCCCCCCCS(=O)(=O)NCC(N)=O
inactive: OVCAR-3 > 100 µM | M14 > 100 µM | HOP-62 > 100 µM | EKVX > 100 µM | HOP-92 > 100 µM | NCI-H23 > 100 µM | NCI-H522 > 100 µM | HCC 2998 > 100 µM | UO-31 > 100 µM | SF-539 > 100 µM | SNB-19 > 100 µM | SF-268 > 100 µM | U-251 > 100 µM | 786-0 > 100 µM | HT-29 > 100 µM

BrC(Br)([P+](c1ccccc1)(c1ccccc1)c1ccccc1)[P+](c1ccccc1)(c1ccccc1)c1ccccc1
inactive: OVCAR-3 11.9 µM | M14 18.5 µM | HOP-62 40.5 µM | EKVX 19.9 µM | HOP-92 11.1 µM | NCI-H23 16.8 µM | NCI-H522 15 µM | HCC 2998 17.4 µM | UO-31 23.6 µM | SF-539 13.6 µM | SF-268 24 µM | U-251 20.3 µM | 786-0 13.5 µM | HT-29 13.6 µM

CC1=C(C(=O)CC(=O)C(=O)Nc2cccc(C)c2C)Sc2ccccc2N1
inactive: OVCAR-3 > 100 µM | K562 > 100 µM | M14 > 100 µM | HOP-62 > 100 µM | EKVX > 100 µM | HOP-92 > 100 µM | NCI-H23 > 100 µM | NCI-H522 > 100 µM | HCC 2998 > 100 µM | UO-31 > 100 µM | SF-539 > 100 µM | SNB-19 > 100 µM | SF-268 > 100 µM | U-251 > 100 µM | 786-0 > 100 µM | HT-29 > 100 µM

CCCC(C(=O)OC)C1N/C(=N/C#N)N(Cc2ccccc2)C1=O (stereo not drawn)
inactive: OVCAR-3 > 100 µM | K562 66.4 µM | M14 > 100 µM | HOP-62 > 100 µM | EKVX > 100 µM | NCI-H23 > 100 µM | NCI-H522 > 100 µM | HCC 2998 > 100 µM | UO-31 67.1 µM | SNB-19 > 100 µM | SF-268 > 100 µM | U-251 > 100 µM | 786-0 > 100 µM | HT-29 > 100 µM

O=C(c1ccccc1)c1c(C(=O)c2ccccc2)c(-c2ccccc2)c2c(-c3ccccc3)sc(-c3ccccc3)c2c1-c1ccccc1
inactive: OVCAR-3 > 100 µM | K562 > 100 µM | M14 > 100 µM | HOP-62 > 100 µM | EKVX > 100 µM | HOP-92 > 100 µM | NCI-H23 > 100 µM | NCI-H522 > 100 µM | HCC 2998 > 100 µM | UO-31 > 100 µM | SF-539 > 100 µM | SNB-19 > 100 µM | SF-268 > 100 µM | U-251 > 100 µM | 786-0 > 100 µM | HT-29 > 100 µM

COC(=N)/C(=C1\OC(=N)C(c2ccc(Cl)cc2)=C1O)c1ccc(Cl)cc1
inactive: OVCAR-3 > 100 µM | K562 > 100 µM | M14 > 100 µM | HOP-62 > 100 µM | EKVX > 100 µM | HOP-92 > 100 µM | NCI-H23 > 100 µM | NCI-H522 > 100 µM | HCC 2998 > 100 µM | UO-31 > 100 µM | SF-539 > 100 µM | SNB-19 > 100 µM | SF-268 > 100 µM | U-251 > 100 µM | 786-0 > 100 µM | HT-29 > 100 µM

N=C(N)NS(=O)(=O)c1ccc(NC(=O)c2cccc3c(N)c4ccccc4nc23)cc1
inactive: OVCAR-3 84.9 µM | K562 > 100 µM | M14 > 100 µM | HOP-62 > 100 µM | EKVX > 100 µM | NCI-H23 > 100 µM | NCI-H522 > 100 µM | HCC 2998 > 100 µM | UO-31 55.8 µM | SF-539 > 100 µM | SNB-19 26.7 µM | SF-268 > 100 µM | U-251 99.8 µM | 786-0 > 100 µM

COc1ccccc1N1C(=O)C2c3[nH]c4ccccc4c3C3CCC(C(C)(C)C)CC3C2C1=O (stereo not drawn)
inactive: K562 > 100 µM | M14 > 100 µM | HOP-62 > 100 µM | EKVX > 100 µM | HOP-92 > 100 µM | NCI-H23 > 100 µM | NCI-H522 > 100 µM | HCC 2998 > 100 µM | UO-31 > 100 µM | SF-539 > 100 µM | SNB-19 > 100 µM | SF-268 > 100 µM | U-251 > 100 µM | 786-0 > 100 µM | HT-29 > 100 µM

O=C(CC(=O)N1N=C(n2ccc3ccccc32)CC1c1ccccc1)Nc1cccc(Cl)c1 (stereo not drawn)
inactive: OVCAR-3 > 100 µM | K562 > 100 µM | M14 > 100 µM | HOP-62 > 100 µM | EKVX > 100 µM | HOP-92 16 µM | NCI-H23 > 100 µM | NCI-H522 > 100 µM | HCC 2998 > 100 µM | UO-31 > 100 µM | SF-539 > 100 µM | SNB-19 > 100 µM | SF-268 > 100 µM | U-251 > 100 µM | 786-0 > 100 µM | HT-29 > 100 µM

O=C1NC(=O)/C(=N\c2cccc3c(=O)[nH][nH]c(=O)c23)C(c2nc3ccccc3s2)C1=O (stereo not drawn)
inactive: OVCAR-3 > 100 µM | M14 > 100 µM | HOP-62 > 100 µM | EKVX > 100 µM | HOP-92 > 100 µM | NCI-H23 > 100 µM | NCI-H522 > 100 µM | HCC 2998 89.7 µM | UO-31 > 100 µM | SNB-19 > 100 µM | SF-268 > 100 µM | U-251 > 100 µM | 786-0 > 100 µM | HT-29 > 100 µM

CC1=C(C(=O)Nc2ccccc2C)C(c2ccc(Cl)cc2)C(C(=O)Nc2ccccc2C)=C(C)N1
inactive: OVCAR-3 > 100 µM | K562 > 100 µM | M14 > 100 µM | HOP-62 > 100 µM | EKVX > 100 µM | HOP-92 > 100 µM | NCI-H23 > 100 µM | NCI-H522 > 100 µM | HCC 2998 > 100 µM | UO-31 > 100 µM | SF-539 > 100 µM | SNB-19 > 100 µM | SF-268 > 100 µM | U-251 > 100 µM | 786-0 > 100 µM | HT-29 > 100 µM

O=C(NN1C(=O)C(Cl)C1c1cccc(Cl)c1)c1ccccc1O (stereo not drawn)
inactive: OVCAR-3 > 100 µM | K562 > 100 µM | M14 > 100 µM | NCI-H23 > 100 µM | NCI-H522 > 100 µM | UO-31 > 100 µM | SF-539 > 100 µM | SNB-19 > 100 µM | SF-268 > 100 µM | U-251 > 100 µM | 786-0 > 100 µM | HT-29 > 100 µM

COc1ccc2c(c1)[n+]([O-])c(-c1ccc(Cl)c(Cl)c1)c(N)[n+]2[O-]
inactive: OVCAR-3 26.1 µM | K562 40.7 µM | M14 25.7 µM | HOP-62 60.8 µM | EKVX 33.6 µM | HOP-92 > 100 µM | NCI-H23 15.8 µM | NCI-H522 14.3 µM | UO-31 39.7 µM | SF-539 23 µM | SNB-19 > 100 µM | SF-268 37.1 µM | U-251 35.1 µM | 786-0 36.7 µM | HT-29 37.5 µM

CCN(CC)CCC1(C2CCCCC2)CCC(=O)NC1=O (stereo not drawn)
inactive: OVCAR-3 > 100 µM | K562 > 100 µM | M14 > 100 µM | HOP-62 > 100 µM | EKVX > 100 µM | NCI-H23 > 100 µM | NCI-H522 > 100 µM | HCC 2998 > 100 µM | UO-31 > 100 µM | SF-539 > 100 µM | SNB-19 > 100 µM | SF-268 > 100 µM | U-251 > 100 µM | 786-0 > 100 µM | HT-29 > 100 µM

CS(=O)(=O)NNS(=O)(=O)c1ccc(F)cc1
inactive: OVCAR-3 > 100 µM | K562 > 100 µM | M14 > 100 µM | HOP-62 > 100 µM | EKVX > 100 µM | NCI-H23 > 100 µM | NCI-H522 > 100 µM | HCC 2998 > 100 µM | UO-31 > 100 µM | SF-539 > 100 µM | SNB-19 > 100 µM | SF-268 > 100 µM | U-251 > 100 µM | 786-0 > 100 µM | HT-29 > 100 µM

N#CCCN(c1ccc(/C=N/c2nc(-c3ccccc3)cs2)cc1)S(=O)(=O)c1ccccc1
inactive: OVCAR-3 39.8 µM | K562 35.6 µM | M14 81.7 µM | HOP-62 96.6 µM | EKVX 37.5 µM | NCI-H23 78.9 µM | NCI-H522 31.6 µM | HCC 2998 64.9 µM | UO-31 23.6 µM | SF-539 > 100 µM | SNB-19 > 100 µM | SF-268 56.1 µM | U-251 > 100 µM | 786-0 > 100 µM | HT-29 > 100 µM

O=c1[nH]cc(COCCO)c(=O)[nH]1
inactive: OVCAR-3 > 100 µM | K562 > 100 µM | M14 > 100 µM | HOP-62 > 100 µM | EKVX > 100 µM | HOP-92 > 100 µM | NCI-H23 > 100 µM | NCI-H522 > 100 µM | UO-31 > 100 µM | SF-539 > 100 µM | SNB-19 > 100 µM | SF-268 > 100 µM | U-251 > 100 µM | 786-0 > 100 µM | HT-29 > 100 µM
